Experiment [1] has as its target T1, human alpha 2A receptor (Homo sapiens, UniProt P08913).
T1 sequence (P08913 1-465): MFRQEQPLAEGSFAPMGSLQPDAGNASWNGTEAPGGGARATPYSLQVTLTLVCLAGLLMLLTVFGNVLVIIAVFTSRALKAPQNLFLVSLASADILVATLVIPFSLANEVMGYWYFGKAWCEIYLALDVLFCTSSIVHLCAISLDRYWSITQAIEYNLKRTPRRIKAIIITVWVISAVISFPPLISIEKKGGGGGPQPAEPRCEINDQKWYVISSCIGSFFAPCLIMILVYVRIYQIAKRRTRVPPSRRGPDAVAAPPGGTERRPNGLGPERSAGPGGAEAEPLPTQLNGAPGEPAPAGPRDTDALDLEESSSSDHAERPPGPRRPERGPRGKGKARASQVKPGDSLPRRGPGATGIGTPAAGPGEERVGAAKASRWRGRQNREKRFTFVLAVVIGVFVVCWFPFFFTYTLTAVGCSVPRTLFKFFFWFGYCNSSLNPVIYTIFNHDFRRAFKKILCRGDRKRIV
The following applies: FLIPR agonist assay, HEK 293 cells with chimeric G protein; norepinephrine is the standard full agonist. On the procedure:
(§1) HEK 293 cells stably expressing the bovine a1A receptor, human alpha 2A receptor and the chimeric G protein Gai5, are plated in poly-D-lysine coated 384-well plates at 20,000-40,000 cells per well and grown overnight in DMEM supplemented with 10% fetal bovine serum. For FLIPR (fluorometric image plate reader) evaluation, cells are washed twice with HBSS/HEPES Buffer (1× Hanks Buffered Salt Solution, 20 mM HEPES, pH 7.4) prior to the addition of Fluo-4-AM (4 uM Fluo-4-AM, 0.04% pluronic acid in HBSS/HEPES Buffer), a calcium-sensitive dye. Cells are loaded with dye for 40 minutes at 37° C., then washed 4 times with HBSS/HEPES Buffer. For both the agonist and antagonist assay, the test compounds are tested between 0.64 nM-10,000 nM. For an agonist assay, the reaction is initiated by the addition of the appropriate dilutions of compounds and the transient calcium signal captured. The peak height of the calcium curve is determined and utilized for calculation of EC50 and efficacy using ActivityBase. Norepinephrine is the standard full agonist used for evaluating alpha-1 and alpha-2 receptor activity.

Experiment [2] deals with T2, bovine a1A receptor (Bos taurus, UniProt P18130).
T2 sequence (P18130 1-466): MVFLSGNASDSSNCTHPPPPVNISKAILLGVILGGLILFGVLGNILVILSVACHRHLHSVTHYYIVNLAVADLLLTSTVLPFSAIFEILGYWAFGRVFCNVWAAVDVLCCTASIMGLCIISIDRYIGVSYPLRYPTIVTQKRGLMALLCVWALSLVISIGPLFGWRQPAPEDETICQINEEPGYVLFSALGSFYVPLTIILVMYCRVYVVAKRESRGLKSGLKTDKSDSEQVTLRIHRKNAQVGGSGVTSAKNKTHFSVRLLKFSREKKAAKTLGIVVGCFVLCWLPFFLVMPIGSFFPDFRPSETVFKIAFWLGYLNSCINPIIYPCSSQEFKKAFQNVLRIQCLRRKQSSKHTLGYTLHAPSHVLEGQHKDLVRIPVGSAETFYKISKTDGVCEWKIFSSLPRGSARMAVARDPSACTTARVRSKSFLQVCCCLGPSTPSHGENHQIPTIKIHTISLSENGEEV
In words: cell-based. The following applies: for a1A efficacy: FLIPR agonist assay, HEK 293 cells, norepinephrine is the standard full agonist. On the procedure: as §1

The test system of experiment [3] is Normotensive male Dutch-Belted rabbits (IOP). The following applies: for IOP effect in the contralateral eye: single topical drop onto right eye, untreated eye. As for the experimental part: The experimental animals used, were Normotensive male Dutch-Belted rabbits (Myrtle's Rabbitry) over 6 months in age (n=4/compound/dose screened). A single drop (50 μl) of the drug formulation, was administered topically by pipette onto the right eye (treated eye) at approximately 0700 hours. IOP of the rabbits (treated and untreated eyes) was measured 0 hours before and at 0.5, 1, 2, 3, 4, 6 and 8 hours after topical eyedrop administration. IOP at the time of eyedrop administration (0 hours) was used as a baseline value. Prior to the tonometric measurements, 0.05% proparacaine (50 μl) was administered to each eye. Tonometric IOP measurements were obtained with a Mentor Pneumontonmeter. Additionally, all studies were masked. At least 1 week of wash-out time was allowed for each rabbit between dosings. All animals were examined for sedation, ocular irritation, and changes in pupil diameter throughout the course of the experiments.

In the case of `Brc1c(NC2=NCCN2)ccc2nccnc12` [Brimonidine, reference compound], in experiment [1], the a2A efficacy is 0.95. In experiment [2], this compound registered a 50% effective concentration (EC50) of 0.6 to 2.4 µM and an a1A efficacy of 0.3. Moreover, in experiment [3] (0.15%, single topical drop, DB Rabbits, 6 hrs), the “IOP effect at 6 hrs in the treated eye” value is “minimal”. For the same compound, in experiment [3] (DB Rabbits), the “IOP effect in the contralateral eye” value was “strong contralateral effect”.
As to `Cc1c(CO)cccc1[C@H](C)c1c[nH]cn1` [Compound 1, (S)-[3-(1-(1H-imidazol-4-yl)ethyl)-2-methylphenyl] methanol], in experiment [1], the a2A efficacy came out at 0.9. In experiment [2], this compound had an EC50 of 0.34 to 2.4 µM and an a1A efficacy of 0.7. Further, the “duration of IOP lowering in the treated eye” value in experiment [3] (0.15% concentration, single topical drop (50 μl), DB Rabbits) was “at least 6 hours”. Moreover, in experiment [3] (FIG. 1), the “IOP lowering efficacy compared with brimonidine” value is listed as “comparable efficacy to brimonidine” and the “intraocular pressure duration compared with brimonidine” value is listed as “longer intraocular pressure duration than brimonidine”. Moreover, in experiment [3] (DB Rabbits), the “IOP effect in the contralateral eye” value is reported as “very little effect”.

In general, EC50 refers to the midpoint of the concentration-response curve. The low end stands for higher potency in that assay, the high end for lower potency in that assay.

The record behind these values is patent publication US20250228823A1, “PHARMACEUTICAL COMPOSITIONS COMPRISING (3-(1-(1H-IMIDAZOL-4-YL)ETHYL)-2-METHYLPHENYL)METHANOL” (Allergan, Inc., priority 2010, published 2025).
